pEC50: −log10 of the molar value.
Columns and labels:
[1] = tested on: extracellular signal-regulated kinase (ERK) phosphorylation; experiment: Western blot analysis of phosphorylated ERK in HeLa cells; assay type: cell-based; details: HeLa cells preincubated with 10 µM Ki16425 for 30 min
Experimental: Figure 3 Effects of 2-carba-lysophosphatidic acid (2carbaLPA) on the phosphorylation of the extracellular signal-regulated kinase (ERK) protein. HeLa cells were preincubated with 10 µM Ki16425 for 30 min at 37 °C and then incubated with 10 µM 2carbaLPA, lysophosphatidic acid (LPA) 18:1, or vehicle for 5 min at 37 °C. Protein levels of phosphorylated ERK, total ERK, and α-tubulin were determined by western blot analysis. The full-length blots are shown in the Supplementary Fig. S2.
HeLa cells were obtained from RIKEN RBC Cell Bank (Tsukuba, Japan). […] Cells were harvested using 0.125 M Tris–HCl (pH 6.8) supplemented with 4% sodium dodecyl sulphate (SDS), 20% glycerol, 10% 2-mercaptoethanol, and 0.01% bromophenol blue. Proteins were separated by SDS–polyacrylamide gel electrophoresis, and the proteins were transferred onto an Immobilon-P Transfer Membrane (Millipore, Burlington, MA, USA). The membrane was incubated with primary antibodies: anti-phospho-ERK (pERK), anti-ERK, and anti-tubulin (all at 1:1,000 dilution, Cell Signaling Technology, Danvers, MA, USA). Next, after washing, the membrane was treated with horseradish peroxidase-conjugated anti-rabbit IgG (1:1000 dilution; Cell Signaling Technology). Immunodetection was performed using an enhanced chemiluminescence system (EzWestLumi plus, ATTO Corporation, Tokyo, Japan) and ImageQuant LAS 4000 (GE healthcare, Buckinghamshire, UK).

hLPA1 = target: T1, hLPA1 (Homo sapiens, UniProt Q92633); experiment: TGFα-shedding assay, LPA1; assay type: cell-based; details: 293A cells, AP-TGFα release
T1 construct: expressed in transfected cells; host or cells: 293A cells
Experimental: Figure 4 Agonistic activity of 2-carba-lysophosphatidic acid (2carbaLPA) and cyclic phosphatidic acid (cPA) analogues toward six lysophosphatidic acid (LPA) receptors. 293A cells expressing LPA receptors were stimulated with the indicated concentration of LPA, 2carbaLPA, and cPA analogues. Receptor-specific alkaline phosphatase-tagged transforming growth factor-α release was calculated by subtracting the responses in the empty vector-transfected cells from those in the receptor-expressing cells. Data are represented as standard error of the mean of three independent replicates.
293A cells (Life Technologies, Tokyo, Japan) were cultured in DMEM (Nissui Pharmaceutical, Tokyo, Japan) supplemented with 10% foetal calf serum (Gibco, Waltham, MA, USA) in an incubator at 37 °C and 5% CO2. This assay was conducted according to a modified version of a method described previously. To improve signal detection, cells for the analysis of LPA1, LPA2, LPA4, and LPA5 were transfected with Gα-chimeric proteins, whereas those for LPA4, LPA5, LPA6 analysis were treated with the LPA1–3 antagonist Ki16425. The cells were co-transfected with vectors-expressing human LPA1–6, alkaline phosphatase-tagged TGFα (AP-TGFα). As negative controls, cells transfected with an empty vector instead of the receptor-expressing vector were used. After 24 h, the cells were resuspended in Hank’s balanced salt solution (HBSS), seeded in 96-well plates, and stimulated with cPA analogues administered at tenfold concentration of the final concentration. The cPA analogues were diluted with HBSS, 0.01% protease and fatty acid-free BSA (SERVA Electrophoresis GmbH, Heidelberg, Germany). Cells for LPA4, LPA5, and LPA6 analysis were treated with Ki16425 (final concentration: 10 μM), 5 min before treatment with the cPA analogues. After incubation for 1 h at 37 °C, 80 µL of the supernatant was transferred to fresh 96-well plates. An equal volume of 1 mM p-NPP solution [120 mM Tris–HCl (pH 9.5), 40 mM NaCl, and 10 mM MgCl2] was added to both the supernatant and the cells. Alkaline phosphatase activity was calculated by measuring absorbance at 405 nm using the Cytation 3 plate reader (BioTek, Winooski, VT, USA).

[2] = cPA analogue stability in the 293A cell medium; assay type: in vitro ADME; details: 10 µM, 1 h, 37 °C, 293A (HEK) cell medium
Experimental: Supplementary Figure S3. Cyclic phosphatidic acid (cPA) analogue stability in the HEK cell medium. Each cPA analogue (final concentration: 10 µM) was incubated with the HEK cell medium for 1 h at 37 °C. The remaining cPA analogue was quantified using liquid chromatography with tandem mass spectrometry (LC-QqQ) and calculated based on the percentage (%) ratio of the final concentration after incubation to the initial concentration. Data are represented as mean ± standard deviation (n = 3 samples).
293A cells were prepared in Hank’s balanced salt solution (HBSS) in 96-well plates. […] After incubation for 1 h at 37 ℃, 80 µL of the supernatant was collected and mixed with 320 µL of acidic methanol, including LPA 17:0 and cPA 17:0 (final concentration: 0.2 µM each; Avanti Polar Lipids, Alabaster, AL, USA).

T1 sequence (Q92633 whole entry): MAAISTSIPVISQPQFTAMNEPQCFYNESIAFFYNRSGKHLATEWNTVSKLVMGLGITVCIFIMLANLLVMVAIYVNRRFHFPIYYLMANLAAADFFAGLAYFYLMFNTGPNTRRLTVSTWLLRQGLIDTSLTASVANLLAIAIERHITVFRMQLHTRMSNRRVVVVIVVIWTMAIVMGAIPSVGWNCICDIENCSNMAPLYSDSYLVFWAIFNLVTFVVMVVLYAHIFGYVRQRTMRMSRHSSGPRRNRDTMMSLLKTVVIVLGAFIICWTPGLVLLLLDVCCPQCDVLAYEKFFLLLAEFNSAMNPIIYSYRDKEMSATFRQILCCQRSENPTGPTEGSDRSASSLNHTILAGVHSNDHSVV

Compound | Effect on 2carbaLPA-induced ERK activation [1] | pEC50 (hLPA1; 1 h) | Emax (hLPA1; read-out: Emax ± SEM hLPA1 (converted)) | Compound remaining after incubation [2]
Cc1noc(-c2ccc(CSCCC(=O)O)cc2)c1NC(=O)OC(C)c1ccccc1Cl (stereo not shown) [Ki16425] | inhibited |  |  | 
CCCCCCCCC=CCCCCCCCC(=O)OCC(O)COP(=O)(O)O (stereo not shown) [LPA 18:1, 1-Oleoyl-LPA] |  | 7.94 | 26.9% | approximately 70%
